Reference: patent US20070117743A1, “New antitumoral compounds” (priority 2003, published 2007)
Where a SMILES comes first, the peptide text is derived from it. Bridges are numbered along the chain shown (N, C = ends). [ ]: non-standard residue; d: D form. The star is where a group is joined. d(aIle) = CC[C@H](C)[C@@H](N)C(=O)O; d(aThr) = C[C@@H](O)[C@@H](N)C(=O)O; Hexanoyl(5-Me) = CC(C)CCCC(=O)*; Dhb = C/C=C(\N)C(=O)O

Columns and labels:
Assay type in all cases: cell-based, human
DU-145 = test: SRB colorimetric assay of cell growth and viability, DU-145; conditions: 48 hours exposure
LoVo-Dox = test: SRB colorimetric assay of cell growth and viability, LoVo-Dox; conditions: 48 hours exposure; for CC50: read-out: LC50 LOVO-DOX
Outline: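 Sulforhodamine B assay run after 48 h of continuous drug contact; cells seeded 5×10^3/well in RPMI 1640 10% FBS, attached 18 h. Triplicate OD490 values give cytostatic (TGI), cytotoxic (LC) and GI parameters.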

IGROV-ET = test: SRB colorimetric assay of cell growth and viability, IGROV-ET; conditions: 48 hours exposure; for CC50: read-out: LC50 IGROV-ET
LNCaP = test: SRB colorimetric assay of cell growth and viability, LNCaP; conditions: 48 hours exposure; for GI50: read-out: GI50 LN-caP; for CC50: read-out: LC50 LN-caP
PANC-1 = test: SRB colorimetric assay of cell growth and viability, PANC-1; conditions: 48 hours exposure; for CC50: read-out: LC50 PANC-1
SK-MEL-28 = test: SRB colorimetric assay of cell growth and viability, SK-MEL-28; conditions: 48 hours exposure; for CC50: read-out: LC50 MEL-28
IGROV-1 = test: SRB colorimetric assay of cell growth and viability, IGROV-1; conditions: 48 hours exposure
LoVo = test: SRB colorimetric assay of cell growth and viability, LoVo; conditions: 48 hours exposure; for CC50: read-out: LC50 LOVO
A-549 = test: SRB colorimetric assay of cell growth and viability, A-549; conditions: 48 hours exposure; for GI50: read-out: GI50 A-549; for CC50: read-out: LC50 A-549
K-562 = test: SRB colorimetric assay of cell growth and viability, K-562; conditions: 48 hours exposure; for CC50: read-out: LC50 K-562
HT-29 = test: SRB colorimetric assay of cell growth and viability, HT-29; conditions: 48 hours exposure; for GI50: read-out: GI50 HT-29; for CC50: read-out: LC50 HT-29
SK-OV-3 = test: SRB colorimetric assay of cell growth and viability, SK-OV-3; conditions: 48 hours exposure; for GI50: read-out: GI50 SKOV-3; for CC50: read-out: LC50 SKOV-3
Source text: The finality of this assay is to interrupt the growth of a “in vitro” tumor cell culture by means a continued exhibition of the cells to the sample to be testing.
A colorimetric type of assay, using sulforhodamine B (SRB) reaction has been adapted for a quantitative measurement of cell growth and viability [following the technique described by Philip Skehan, et al. (1990), New colorimetric cytotoxicity assay for anticancer drug screening, J. Natl. Cancer Inst., 82:1107-1112].
This form of the assay employs 96 well cell culture microplates of 9 mm diameter (Faircloth, 1988; Mosmann, 1983). Most of the cell lines are obtained from American Type Culture Collection (ATCC) derived from different human cancer types.
Cells are maintained in RPMI 1640 10% FBS, supplemented with 0.1 g/l penicillin and 0.1 g/l streptomycin sulfate and then incubated at 37° C., 5% CO2 and 98% humidity. For the experiments, cells were harvested from subconfluent cultures using trypsin and resuspended in fresh medium before plating.
Cells are seeded in 96 well microtiter plates, at 5×10^3 cells per well in aliquots of 195 μL medium, and they are allowed to attach to the plate surface by growing in drug free medium for 18 hours. Afterward, samples are added in aliquots of 5 μL in a ranging from 10 to 10^−8 μg/mL, dissolved in DMSO:EtOH:PBS (0.5:0.5:99). After 48 hours exposure, the antitumor effect are measured by the SRB methodology: cells are fixed by adding 50 μL of cold 50% (wt/vol) trichloroacetic acid (TCA) and incubating for 60 minutes at 4° C. Plates are washed with deionized water and dried. One hundred μL of SRB solution (0.4% wt/vol in 1% acetic acid) is added to each microtiter well and incubated for 10 minutes at room temperature. Unbound SRB is removed by washing with 1% acetic acid. Plates are air dried and bound stain is solubilized with Tris buffer. Optical densities are read on a automated spectrophotometric plate reader at a single wavelength of 490 nm.
The values for mean+/− SD of data from triplicate wells are calculated. Some parameters for cellular responses can be calculated: GI=growth inhibition, TGI=total growth inhibition (cytostatic effect) and LC=cell killing (cytotoxic effect).

SMILES | GI50 (DU-145) [nM] | LC50 (concentration causing 50% net cell kill) (DU-145) [nM] | TGI DU-145 (DU-145) [Molar] | GI50 (LoVo-Dox) [nM] | TGI LOVO-DOX (LoVo-Dox) [Molar] | CC50 (LoVo-Dox) [nM] | GI50 (IGROV-ET) [nM] | TGI IGROV-ET (IGROV-ET) [Molar] | CC50 (IGROV-ET) [nM] | TGI LN-caP (LNCaP) [Molar] | GI50 (LNCaP) [nM] | CC50 (LNCaP) [nM] | GI50 (PANC-1) [nM] | TGI PANC-1 (PANC-1) [Molar] | CC50 (PANC-1) [nM] | GI50 (SK-MEL-28) [nM] | TGI MEL-28 (SK-MEL-28) [Molar] | CC50 (SK-MEL-28) [nM] | GI50 (IGROV-1) [nM] | LC50 (concentration causing 50% net cell killing) (IGROV-1) [nM] | further results
C/C=C1\NC(=O)[C@H](Cc2ccccc2)NC(=O)[C@@H](C(C)C)NC(=O)[C@@H]([C@@H](C)CC)NC(=O)[C@H](NC(=O)[C@H](NC(=O)[C@H](CCC(=O)O)NC(=O)[C@H]2CCCN2C(=O)[C@H](NC(=O)[C@@H](NC(=O)[C@@H](NC(=O)[C@H](NC(=O)CCCC(C)C)C(C)C)[C@@H](C)O)C(C)C)C(C)C)[C@@H](C)CC)[C@@H](C)OC(=O)[C@H](C(C)C)NC1=O [Compound 4, [Glu^8]-KF] ({Hexanoyl(5-Me)}-[dV]TV[dV][dP]E[d(aIle)][d(aThr)][d(aIle)][dV]F[Dhb]V; ester 8-C) | 1030 | 3880 | 2.00E−06 | 757 | 1.77E−06 | 4150 | 817 | 1.69E−06 | 3520 | 1.19E−06 | 371 | 3620 | 1820 | 3.46E−06 | 6600 | 2950 | 6.70E−06 | 6700 | 490 | 3310 | TGI IGROV (IGROV-1): 1.29E−06 Molar; GI50 (LoVo): 348 nM; TGI LOVO (LoVo): 6.45E−07 Molar; CC50 (LoVo): 2650 nM; TGI A-549 (A-549): 4.02E−06 Molar; GI50 (A-549): 1770 nM; CC50 (A-549): 6700 nM; GI50 (K-562): 2110 nM; TGI K-562 (K-562): 5.10E−06 Molar; CC50 (K-562): 6700 nM; TGI HT-29 (HT-29): 2.00E−06 Molar; GI50 (HT-29): 884 nM; CC50 (HT-29): 4550 nM; TGI SKOV-3 (SK-OV-3): 5.85E−07 Molar; GI50 (SK-OV-3): 195 nM; CC50 (SK-OV-3): 2260 nM
C/C=C1\NC(=O)[C@H](Cc2ccccc2)NC(=O)[C@@H](C(C)C)NC(=O)[C@@H]([C@@H](C)CC)NC(=O)[C@H](NC(=O)[C@H](NC(=O)[C@H](CCCN)NC(=O)[C@H]2CCCN2C(=O)[C@H](NC(=O)[C@@H](NC(=O)[C@@H](NC(=O)[C@H](NC(=O)Cc2ccc(C(F)(F)F)cc2)C(C)C)[C@@H](C)O)C(C)C)C(C)C)[C@@H](C)CC)[C@@H](C)OC(=O)[C@H](C(C)C)NC1=O [Compound 25, [p-CF3PhAc^14]-KF] | 251 | 2380 | 7.86E−07 | 176 | 3.92E−07 | 1430 | 200 | 3.23E−07 | 521 | 1.19E−06 | 320 | 3660 | 1580 | 3.07E−06 | 5960 | 1400 | 2.14E−05 | 4060 | 252 | 1960 | TGI IGROV (IGROV-1): 4.54E−07 Molar; GI50 (LoVo): 203 nM; TGI LOVO (LoVo): 4.59E−07 Molar; CC50 (LoVo): 1610 nM; TGI A-549 (A-549): 9.67E−07 Molar; GI50 (A-549): 297 nM; CC50 (A-549): 3240 nM; GI50 (K-562): 1420 nM; TGI K-562 (K-562): 3.06E−06 Molar; CC50 (K-562): 6440 nM; TGI HT-29 (HT-29): 1.41E−06 Molar; GI50 (HT-29): 555 nM; CC50 (HT-29): 3320 nM; TGI SKOV-3 (SK-OV-3): 3.29E−07 Molar; GI50 (SK-OV-3): 126 nM; CC50 (SK-OV-3): 1130 nM
